Experimental data taken from US5326902A, “Oxyalkyne compounds, pharmaceutical compositions containing them and processes for preparing such compounds and compositions” (Gruenenthal GmbH, priority 1992, dated 1994).

Biological target: T1, 12-lipoxygenase (Homo sapiens, UniProt P18054)
T1 sequence (P18054 1-663): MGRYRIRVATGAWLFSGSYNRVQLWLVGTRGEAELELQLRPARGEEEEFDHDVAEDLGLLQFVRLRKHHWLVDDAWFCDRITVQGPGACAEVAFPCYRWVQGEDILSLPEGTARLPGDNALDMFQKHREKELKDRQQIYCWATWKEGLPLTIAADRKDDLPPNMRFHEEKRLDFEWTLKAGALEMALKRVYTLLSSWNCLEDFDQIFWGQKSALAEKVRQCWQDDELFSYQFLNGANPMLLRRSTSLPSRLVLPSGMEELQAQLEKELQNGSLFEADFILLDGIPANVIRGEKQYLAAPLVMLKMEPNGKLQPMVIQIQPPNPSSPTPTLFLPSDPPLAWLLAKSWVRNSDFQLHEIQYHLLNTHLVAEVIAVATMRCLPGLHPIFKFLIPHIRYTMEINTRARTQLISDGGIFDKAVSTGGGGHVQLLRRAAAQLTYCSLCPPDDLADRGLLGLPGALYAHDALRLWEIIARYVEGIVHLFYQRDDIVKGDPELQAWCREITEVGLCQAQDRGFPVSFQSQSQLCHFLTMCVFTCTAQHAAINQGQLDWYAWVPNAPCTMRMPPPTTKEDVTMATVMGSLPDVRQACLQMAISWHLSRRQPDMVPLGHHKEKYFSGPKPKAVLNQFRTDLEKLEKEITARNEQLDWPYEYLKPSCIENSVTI
Assay: Inhibition of 12-HETE- and 5S,12S-DiHETE-synthesis induced by FMLP/merthiolate of human polymorphonuclear leukocytes and thrombocytes
Format: cell-based
Conditions: coincubation of human granulocytes and thrombocytes, read-out: IC50-value of the inhibitory action on 12-lipoxygenase
Experimental: Human granulocytes were isolated by dextran sedimentation and a Percoll gradient method and suspended in HBSS (Hanks buffered saline solution) at 1×10^7 cells/ml. The cells were incubated in the presence of a compound according to the invention or a solvent (ethanol and/or dimethyl sulfoxide) at 37° C. for 2 minutes, then with merthiolate (sodium ethylmercurithiosalicylate; 40 μM) for 2 minutes and thereafter with FMLP (formyl-methionyl-leucylphenylalanine; 10^-7 M) for 15 minutes. After solid phase extraction, the metabolites of arachidonic acid 5-HETE, LTB4, 6-trans-LTB4 -isomers, 20-OH-LTB4 and 20-COOH-LTB4 were identified by RP-HPLC (M. Haurand and L. Flohe in Biochem. Pharmacol. 38, 2129 to 2137 (1989)).
Coincubations of human granulocytes and thrombocytes were carried out and investigated for inhibition of leukotriene-synthesis induced by FMLP/merthiolate. 12-HETE and 5S, 12S-DiHETE were additionally included into the evaluation. The IC50 -value of the inhibitory action on 12-lipoxygenase was 5 μmolar when the compound prepared according to Example 1 was used.

CC(=O)N(O)Cc1ccc(C(O)C#Cc2ccccc2)cc1 (racemic) [Example 1, N-Hydroxy-N-[4-[1-hydroxy-3-phenyl-prop-2-yn-1-yl]benzyl]acetamide]
IC50: 5 µM
